This note sets out measurements from ChEMBL document CHEMBL1143153, “BACE-1 inhibitors part 1: identification of novel hydroxy ethylamines (HEAs)” (Bioorg Med Chem Lett, 2008).

The target in assay [1] is T1, Beta-secretase 1 (Homo sapiens, UniProt P56817). Nature of the assay: Inhibition of BACE1.
Another assay has as its target Cathepsin D (Homo sapiens, UniProt P07339). Nature of the assay: Inhibition of cathepsin D.
For assay [2], the target named is T1, Beta-secretase 1. In kind it is cell-based, SH-SY5Y.
Assay [3] has as its target T1, Beta-secretase 1. In words: Inhibition of BACE1 expressed in SHSY5Y cells assessed as reduction of amyloid beta 40 production. The format is cell-based, SH-SY5Y.
The target of another assay is T2, Beta-secretase 2 (Homo sapiens, UniProt Q9Y5Z0).
T2 sequence (Q9Y5Z0 whole entry): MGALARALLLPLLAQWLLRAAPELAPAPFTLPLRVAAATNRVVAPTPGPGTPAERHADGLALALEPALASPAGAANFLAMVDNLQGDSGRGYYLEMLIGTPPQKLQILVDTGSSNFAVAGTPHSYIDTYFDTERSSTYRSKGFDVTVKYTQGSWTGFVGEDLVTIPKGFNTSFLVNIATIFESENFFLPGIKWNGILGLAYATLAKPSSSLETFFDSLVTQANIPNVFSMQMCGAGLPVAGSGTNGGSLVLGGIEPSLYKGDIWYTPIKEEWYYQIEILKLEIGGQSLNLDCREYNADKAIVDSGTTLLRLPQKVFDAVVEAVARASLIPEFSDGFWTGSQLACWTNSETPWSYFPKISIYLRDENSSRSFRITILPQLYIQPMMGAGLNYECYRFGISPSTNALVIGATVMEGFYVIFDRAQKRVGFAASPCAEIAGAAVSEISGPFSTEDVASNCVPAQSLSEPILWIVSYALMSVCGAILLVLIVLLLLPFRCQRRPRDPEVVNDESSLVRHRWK
In words: Inhibition of BACE2.

T1 sequence (P56817 whole entry): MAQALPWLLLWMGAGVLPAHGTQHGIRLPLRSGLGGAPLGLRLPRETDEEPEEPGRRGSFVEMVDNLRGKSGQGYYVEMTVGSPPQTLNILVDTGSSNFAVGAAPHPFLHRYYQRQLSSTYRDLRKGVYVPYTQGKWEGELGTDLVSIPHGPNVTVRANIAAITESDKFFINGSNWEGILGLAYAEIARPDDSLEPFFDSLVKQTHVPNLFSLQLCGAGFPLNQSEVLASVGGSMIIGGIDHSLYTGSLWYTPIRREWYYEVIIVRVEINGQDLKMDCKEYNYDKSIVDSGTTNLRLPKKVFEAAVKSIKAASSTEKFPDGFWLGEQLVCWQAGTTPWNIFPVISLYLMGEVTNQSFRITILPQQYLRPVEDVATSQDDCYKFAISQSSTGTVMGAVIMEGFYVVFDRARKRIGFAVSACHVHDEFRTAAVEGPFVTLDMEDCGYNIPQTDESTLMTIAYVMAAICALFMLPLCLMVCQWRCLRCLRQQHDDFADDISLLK
Cathepsin D, sequence (P07339 65-162 limits assumed): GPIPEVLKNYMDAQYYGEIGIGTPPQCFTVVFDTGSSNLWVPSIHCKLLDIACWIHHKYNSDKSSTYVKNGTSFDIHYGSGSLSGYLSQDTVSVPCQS
Cathepsin D, sequence (P07339 169-412 limits assumed): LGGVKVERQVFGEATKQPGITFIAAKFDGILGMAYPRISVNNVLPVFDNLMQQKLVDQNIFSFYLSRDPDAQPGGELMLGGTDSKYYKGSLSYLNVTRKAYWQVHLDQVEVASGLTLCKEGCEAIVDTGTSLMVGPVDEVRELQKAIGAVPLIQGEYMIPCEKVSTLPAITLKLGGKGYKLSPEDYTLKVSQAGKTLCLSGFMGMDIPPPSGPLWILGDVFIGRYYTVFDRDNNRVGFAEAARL

As a reminder, the IC50 is the concentration at which inhibition is half-maximal. With `CC(C)Nc1cc(C(=O)N[C@@H](Cc2ccccc2)[C@H](O)CN[C@@H](C)C(=O)NC2CCCCC2)cc(N2CCCC2=O)c1`, the IC50 against Beta-secretase 1 [1] was 39 nM; against Cathepsin D, 5410 nM; at Beta-secretase 1 [2] it was 280 nM; at Beta-secretase 1 [3] it was 330 nM; on Beta-secretase 2, 830 nM.
With `C[C@H](NC[C@@H](O)[C@H](Cc1ccccc1)NC(=O)c1cc(N2CCCC2)cc(N2CCCC2=O)c1)C(=O)NC1CCCCC1`, the IC50 came to 860 nM against Beta-secretase 1 [1], 9280 nM against Cathepsin D and 8790 nM against Beta-secretase 2.
`CC(C)CNc1cc(C(=O)N[C@@H](Cc2ccccc2)[C@H](O)CN[C@@H](C)C(=O)NC2CCCCC2)cc(N2CCCC2=O)c1`: the IC50 came out at 180 nM against Beta-secretase 1 [1], 3090 nM against Cathepsin D and 650 nM on Beta-secretase 2.
`CC(C)Oc1cc(C(=O)N[C@@H](Cc2ccccc2)[C@H](O)CN[C@@H](C)C(=O)NC2CCCCC2)cc(N2CCCC2=O)c1`: the IC50 against Beta-secretase 1 [1] was 120 nM; against Cathepsin D, 12300 nM; against Beta-secretase 1 [2], 1180 nM; at Beta-secretase 1 [3], 1130 nM; against Beta-secretase 2, 4790 nM.
`CC(C)C[C@H](NC(=O)c1cccc(S(C)(=O)=O)c1)[C@H](O)CN[C@@H](C)C(=O)NC1CCCCC1`: the IC50 on Beta-secretase 1 [1] was above 500000 nM.
As to `CCCCCOc1cc(C(=O)N[C@@H](Cc2ccccc2)[C@H](O)CN[C@@H](C)C(=O)NC2CCCCC2)cc(N2CCCC2=O)c1`, the figures for the IC50 at Beta-secretase 1 [1], at Cathepsin D and against Beta-secretase 2 were 32 nM, 430 nM and 400 nM, respectively.
Consider `C[C@H](NC[C@H](O)[C@H](Cc1ccccc1)NC(=O)c1cccc(S(C)(=O)=O)c1)C(=O)NC1CCCCC1`, for which the IC50 against Beta-secretase 1 [1] was above 500000 nM.
Consider `CCCc1cc(C(=O)N[C@@H](Cc2ccccc2)[C@H](O)CN[C@@H](C)C(=O)NC2CCCCC2)cc(N2CCCC2=O)c1`, for which the IC50 came to 72 nM against Beta-secretase 1 [1]; 4570 nM against Cathepsin D; 690 nM against Beta-secretase 1 [2]; 990 nM at Beta-secretase 1 [3]; 1580 nM at Beta-secretase 2.
Take `CCOc1cc(C(=O)N[C@@H](Cc2ccccc2)[C@H](O)CN[C@@H](C)C(=O)NC2CCCCC2)cc(N2CCCC2=O)c1`: the IC50 at Beta-secretase 1 [1] stood at 59 nM; at Cathepsin D it was 7940 nM; at Beta-secretase 1 [2], 1420 nM; on Beta-secretase 1 [3], 970 nM; against Beta-secretase 2, 5130 nM.
`COc1cc(C(=O)N[C@@H](Cc2ccccc2)[C@H](O)CN[C@@H](C)C(=O)NC2CCCCC2)cc(N2CCCC2=O)c1`: the values for the IC50 against Beta-secretase 1 [1], on Cathepsin D and at Beta-secretase 2 were 745 nM, 30000 nM and 28600 nM, respectively.
The corresponding values for `CC(=O)Nc1ccc(C(=O)N[C@@H](Cc2ccccc2)[C@H](O)CN[C@@H](C)C(=O)NC2CCCCC2)cc1` are 62000 nM, above 100000 nM and above 100000 nM.
The matching figures for `C[C@H](NC[C@@H](O)[C@H](Cc1ccccc1)NC(=O)c1cccc(N2CCCS2(=O)=O)c1)C(=O)NC1CCCCC1`: 1900 nM, 10000 nM and above 21000 nM.
For the compound `CCCOc1cc(C(=O)N[C@@H](Cc2ccccc2)[C@H](O)CN[C@@H](C)C(=O)NC2CCCCC2)cc(N2CCCC2=O)c1`, the half-maximal inhibitory concentration (IC50) against Cathepsin D was 47100 nM; against Beta-secretase 1 [2] it was 1380 nM; on Beta-secretase 1 [3], 1690 nM; at Beta-secretase 2, 8240 nM.
In the case of `CCCCCS(=O)(=O)c1cccc(C(=O)N[C@@H](Cc2ccccc2)[C@H](O)CN[C@@H](C)C(=O)NC2CCCCC2)c1`, the figures for the IC50 against Cathepsin D and at Beta-secretase 2 were 600 nM and 3600 nM, respectively.
`C[C@@H](C(=O)NC1CCCCC1)N(C)C[C@@H](O)[C@H](Cc1ccccc1)NC(=O)c1cccc(S(C)(=O)=O)c1` displayed an IC50 against Beta-secretase 1 [1] above 500000 nM.
For the compound `CCOc1cc(C(=O)N[C@@H](Cc2ccccc2)[C@H](O)CN[C@@H](C)C(=O)NC2CCCCC2)cc(N2CCCC2)c1`, the figures for the IC50 on Beta-secretase 1 [1], on Cathepsin D and against Beta-secretase 2 were 1450 nM, 6170 nM and 12900 nM, respectively.
